According to paper PMC2856764 (Human immunology, 2010):
Ends that are not written are not given here. Peptide text beside a SMILES is read from it.

Columns and labels:
HLA-A*0301 = HLA-A*0301 (Homo sapiens, UniProt P04439); assay: biochemical; assay type: binding
HLA-A*1101 = HLA-A*1101 (Homo sapiens, UniProt P04439, A114D/D185E/E176A/F33Y/L180Q/S129P/T187R); assay: biochemical; assay type: binding
HLA-A*3101 = HLA-A*3101 (Homo sapiens, UniProt P04439, A270S/D185E/E176V/E277Q/F33T/G231S/G80R/H175R/I121M/I218V/I322F/K168Q/L300P/L318F/M331R/P217A/Q94H/R138Q/T323A/T345S/T97I/V358M); assay: biochemical; assay type: binding
HLA-A*3301 = HLA-A*3301 (Homo sapiens, UniProt P04439, A270S/D185E/E176V/E277Q/E87N/F33T/G231S/H175R/I121M/I218V/I322F/K168Q/K210R/L300P/L318F/M331R/P217A/Q86R/Q94H/R138Q/T323A/T345S/T97I/V358M/Y195H); assay: biochemical; assay type: binding
HLA-A*6801 = HLA-A*6801 (Homo sapiens, UniProt P04439, A269V/D185E/E176V/E277Q/E87N/F33Y/G231S/I121M/I166T/I218V/L180W/L300P/L318F/N151K/P208A/P217A/Q86R/R169H/T345S); assay: biochemical; assay type: binding
[1] = tested on: CD8+ enriched human donor PBMC; assay type: cell-based
HLA-B*1801 = HLA-B*1801 (Homo sapiens, UniProt P01889, A329T/A93T/A95T/C349S/D201E/D54G/D98Y/E176V/E187T/E204Q/E69T/K202T/Q94N/R155S/R180L/S121R/V306I/Y140S/Y195H/Y33H/Y91S); assay: biochemical; assay type: binding
HLA-B*4001 = HLA-B*4001 (Homo sapiens, UniProt P01889, A65T/A93T/A95T/D138N/D98Y/E176V/E69K/N87E/Q56L/Q94N/R180L/S121R/S35A/S48T/T167S/V36M/W171L/Y33H/Y91S); assay: biochemical; assay type: binding
HLA-B*4002 = HLA-B*4002 (Homo sapiens, UniProt P01889, A65T/A93T/A95T/D138N/D201E/D98Y/E176V/E204Q/E69K/K202T/N87E/Q56L/Q94N/R180L/S48T/Y33H/Y91S); assay: biochemical; assay type: binding
HLA-B*4402 = HLA-B*4402 (Homo sapiens, UniProt P01889, A223V/A65T/A93T/A95T/D201E/D98Y/E176V/E187L/E204Q/E69K/G107R/H137Y/K202T/L105A/L119I/N104T/N87E/Q56L/Q94N/R106L/R155S/R180D/S101N/S121R/S35A/S48T/T118I/V36M/W191S/Y140D/Y91S); assay: biochemical; assay type: binding
HLA-B*4403 = HLA-B*4403 (Homo sapiens, UniProt P01889, A223V/A65T/A93T/A95T/D201E/D98Y/E176V/E187L/E204Q/E69K/G107R/H137Y/K202T/L105A/L119I/N104T/N87E/Q56L/Q94N/R106L/R155S/R180L/S101N/S121R/S35A/S48T/T118I/V36M/W191S/Y140D/Y91S); assay: biochemical; assay type: binding
HLA-B*4501 = HLA-B*4501 (Homo sapiens, UniProt P01889, A329T/A65T/A93T/A95T/C349S/D138N/D201E/D98Y/E176V/E187L/E204Q/E69K/H137Y/K202T/L119W/N87E/Q56L/Q94N/R155S/R180D/S121R/S35A/S48T/V127L/V306I/V36M/W191S/Y140L/Y33H/Y91S); assay: biochemical; assay type: binding
HLA-A*2902 = HLA-A*2902 (Homo sapiens, UniProt P04439, A270S/D101N/D185E/E176V/E277Q/E87Q/F33T/G231S/H175R/I121M/I218V/I322F/K168Q/L300P/L318F/M331R/P208A/P217A/Q86L/T323A/T345S/V100A/V358M); assay: biochemical; assay type: binding
HLA-A*3002 = HLA-A*3002 (Homo sapiens, UniProt P04439, D101N/D140H/D185E/E176R/F33S/G80R/H175R/K168Q/Q94H/R138E/R41S/V100E); assay: biochemical; assay type: binding
HLA-A*2301 = HLA-A*2301 (Homo sapiens, UniProt P04439, D101N/D140Y/D185E/E176V/E190D/F33S/G103R/G107R/H175R/I119L/I121M/I306V/K168Q/K335N/L105A/L300P/N151K/N90K/P307H/Q86E/Q94H/R106L/R138H/R89G/T104I/T345S/V100E/W191G/Y123F); assay: biochemical; assay type: binding
HLA-A*2402 = HLA-A*2402 (Homo sapiens, UniProt P04439, D101N/D140Y/D185E/E176V/E190D/F33S/G103R/G107R/I119L/I121M/I306V/K335N/L105A/L180Q/L300P/N151K/N90K/Q86E/Q94H/R106L/R138H/R89G/T104I/T345S/V100E/W191G/Y123F); assay: biochemical; assay type: binding

Row | Compound | IC50 (HLA-A*0301) [nM] | IC50 (HLA-A*1101) [nM] | IC50 (HLA-A*3101) [nM] | IC50 (HLA-A*3301) [nM] | IC50 (HLA-A*6801) [nM] | also measured
1 | SVQPTFSVQR [NP.407] | > 10000 | 37 | 21 | 181 | 84 | 
2 | CC(C)C[C@H](NC(=O)[C@H](CS)NC(=O)[C@H](CO)NC(=O)[C@@H](N)CCCCN)C(=O)N1CCC[C@H]1C(=O)N[C@@H](C)C(=O)N[C@@H](CS)C(=O)N[C@H](C(=O)N[C@@H](Cc1ccc(O)cc1)C(=O)O)C(C)C [NP.273] (H-KSCLPACVY-OH; N-terminus and C-terminus assumed) |  |  |  |  |  | IFN-γ responses [1]: 590; 1200; 300 SFC/10^6 CD8^+ cells; peptide-specific recall response [1]: Significant
3 | KLVGINMSKK [PB1.471] | 14 | 315 | 518 | > 10000 | 1610 | 
4 | SVQRNLPFER [NP.413] | > 10000 | 411 | 104 | 321 | 19 | 
5 | GTFEFTSFFY [PB1.488] | 16 | 1 | 242 | 5410 | 100 | 
6 | RLFFKCIYRR [M2.45] | 135 | 294 | 5 | 238 | 88 | 
7 | CC(C)C[C@H](NC(=O)CNC(=O)[C@H](Cc1ccc(O)cc1)NC(=O)[C@@H](NC(=O)[C@H](CS)NC(=O)[C@H](C)NC(=O)[C@@H]1CCCN1C(=O)[C@H](CC(C)C)NC(=O)[C@@H](N)CS)C(C)C)C(=O)O [NP.275] (H-CLPACVYGL-OH; N-terminus and C-terminus assumed) |  |  |  |  |  | IFN-γ responses [1]: 350; 986; 2200 SFC/10^6 CD8^+ cells; peptide-specific recall response [1]: responses induced
8 | SEQAAEAMEV [M1.196] |  |  |  |  |  | IC50 (HLA-B*1801): 1900 nM; IC50 (HLA-B*4001): 2670 nM; IC50 (HLA-B*4002): 85 nM; IC50 (HLA-B*4402): 2640 nM; IC50 (HLA-B*4403): 7670 nM; IC50 (HLA-B*4501): 35 nM
9 | SFSFGGFTFK [PB2.322] | 74 | 7 | 19 | 85 | 60 | 
10 | VLRGFLILGK [PB2.690] | 10 | 460 | 85 | > 10000 | 1160 | 
11 | FYRYGFVANF [PB1.496] |  |  |  |  |  | IC50 (HLA-A*2902): 812 nM; IC50 (HLA-A*3002): > 10000 nM; IC50 (HLA-A*2301): 13 nM; IC50 (HLA-A*2402): 17 nM
